Results on 23 molecules are retold here after PubChem BioAssay (NCI).

Some test systems named below: ACHN renal; EKVX NSCLC; SF-295 CNS; A549 NSCLC; NCI-H460 lung; SNB-75 CNS; UO-31 renal; SF-268 CNS.
Holding throughout (assay): NCI anticancer screen, dose series, 48 h

Where “and” joins values, the source holds several entries; their conditions need not be identical. Identical values can stand only once.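 Each compound was tested at five concentrations against cells in 96-well plates for 48 hours. GI50 marks 50% less growth. Definition used: TGI = concentration required for complete inhibition of growth.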

On to `Cc1ccc(N2C(=O)N(c3ccc(C)cc3)C3(SC=NN3C)C2=O)cc1` (configuration not stated), for which the TGI in the test with ACHN renal, with EKVX NSCLC, with SF-295 CNS, in the test on A549 NSCLC, with NCI-H460 lung and with SNB-75 CNS was > 100 µM each time. Also, the TGI in the test with UO-31 renal and in the test with SF-268 CNS was > 100 µM in each case.

In the case of `N#Cc1c(-c2ccco2)cc(-c2ccc(N)cc2)[nH]c1=O`, the TGI in the test on ACHN renal, in the test on EKVX NSCLC, in the test with SF-295 CNS, in the test on A549 NSCLC, with NCI-H460 lung and with SNB-75 CNS was > 100 µM throughout. The TGI with UO-31 renal and with SF-268 CNS was > 100 µM each time.

Consider `COc1ccc(-c2cc(-c3ccc(Nc4ccnc5cc(Cl)ccc45)cc3)nc(N3CCOCC3)n2)cc1`, for which the GI50 is > 100 µM in the test on EKVX NSCLC, 1.52 µM in the test with SNB-75 CNS, > 100 µM in the test with UO-31 renal and 6.23 µM with SF-268 CNS. Besides, the TGI with EKVX NSCLC was > 100 µM; in the test on SNB-75 CNS, 5.32 µM; in the test on UO-31 renal, > 100 µM; in the test with SF-268 CNS it was > 100 µM.

Take `NCCN.O=C([O-])[O-].O=C([O-])[O-].[Co+3].[K+]`: the GI50 in the test with ACHN renal was > 100 µM; in the test with EKVX NSCLC, > 100 µM; in the test with SF-295 CNS, > 100 µM; in the test on A549 NSCLC it was > 100 µM; in the test with NCI-H460 lung, > 100 µM; in the test with SNB-75 CNS, > 100 µM and 72.3 µM. Also, the GI50 in the test on UO-31 renal and in the test with SF-268 CNS was > 100 µM in each case. Further, the TGI in the test on ACHN renal, in the test with EKVX NSCLC, in the test with SF-295 CNS, with A549 NSCLC, with NCI-H460 lung and with SNB-75 CNS was > 100 µM each time. For the same molecule, the TGI with UO-31 renal and in the test with SF-268 CNS was > 100 µM throughout.

As for `O=C1CC2CCN(C(=O)c3ccccc3)CC2CCN1` (configuration not stated), the TGI in the test on ACHN renal, with EKVX NSCLC, in the test on SF-295 CNS, with A549 NSCLC, with NCI-H460 lung and in the test on SNB-75 CNS was > 100 µM each time. Also, the TGI in the test on UO-31 renal and in the test with SF-268 CNS was > 100 µM in each case.

As for `NC(CCc1ncc(C(=O)O)s1)C(=O)O` (configuration not stated), the TGI with ACHN renal, in the test with EKVX NSCLC, in the test with SF-295 CNS, in the test on A549 NSCLC, in the test on NCI-H460 lung and with SNB-75 CNS was > 100 µM each time. Further, in the test with UO-31 renal, the TGI is > 100 µM.

As for `COC(=O)c1c[nH]cc1CCCCc1c[nH]cc1C(=O)OC`, the TGI with ACHN renal, in the test with EKVX NSCLC, in the test on SF-295 CNS, with A549 NSCLC, in the test with NCI-H460 lung and in the test with SF-268 CNS was > 100 µM throughout.

`CC1COS(=O)O1` (configuration not stated): the TGI with ACHN renal, in the test with EKVX NSCLC, with SF-295 CNS, in the test with A549 NSCLC, in the test on NCI-H460 lung and in the test with SNB-75 CNS was > 100 µM throughout. Also, the TGI with UO-31 renal and in the test with SF-268 CNS was > 100 µM throughout.

Consider `O=C1c2ccc3c4ccccc4n(-c4ccccc4)c3c2C(=O)N1c1ccc(Cl)cc1`, for which the TGI in the test with ACHN renal, with EKVX NSCLC, with SF-295 CNS, with A549 NSCLC, with NCI-H460 lung and in the test on SNB-75 CNS was > 100 µM in each case. In addition, the TGI in the test on UO-31 renal and with SF-268 CNS was > 100 µM each time.

As to `CC(C)(C)OC(=O)N1C2CCCC23O[C@@H]1c1cc2c(cc1C3=O)OCO2` (some centres not stated), the TGI with ACHN renal was > 100 µM; in the test on EKVX NSCLC, > 100 µM; in the test with SF-295 CNS, 82.9 µM; with A549 NSCLC, > 100 µM; in the test with NCI-H460 lung, > 100 µM; in the test with SNB-75 CNS it was 56.8 µM. Further, the TGI with UO-31 renal and in the test with SF-268 CNS was > 100 µM in each case.

As to `COc1cc2c(cc1OC)C1Cc3cc(OC)c(OC)cc3N1CC2` (configuration not stated), the TGI with ACHN renal was 43 µM; with EKVX NSCLC, 89.5 µM; with SF-295 CNS it was > 100 µM; in the test with A549 NSCLC, 79.9 µM; in the test on NCI-H460 lung, > 100 µM; in the test with SNB-75 CNS, 56.2 µM. Moreover, the figures for the TGI in the test with UO-31 renal and with SF-268 CNS were 86 µM and > 100 µM, respectively.

Turning to `Nc1ccc(C2=N/C(=C\c3cccc(N)c3)C(=O)O2)cc1`, the TGI with ACHN renal, in the test on EKVX NSCLC, with SF-295 CNS, with A549 NSCLC, in the test with UO-31 renal and in the test on SF-268 CNS was > 100 µM in each case.

For `Cc1ccc(C)c(N2C(=O)C(=O)C(c3nc4ccccc4o3)/C(=N\NC(=O)c3ccccc3O)C2=O)c1` (configuration not stated), the TGI with ACHN renal was > 100 µM; in the test with EKVX NSCLC, > 100 µM; in the test with SF-295 CNS, > 100 µM; in the test with A549 NSCLC it was > 100 µM; with SNB-75 CNS, > 100 µM; with UO-31 renal, 87.6 µM. Moreover, the TGI with SF-268 CNS was > 100 µM.

As to `COc1cc(/C=N\O[Si](C)(C)C(C)(C)C)ccc1O[Si](C)(C)C(C)(C)C`, the TGI with ACHN renal, in the test with EKVX NSCLC, with SF-295 CNS, in the test with A549 NSCLC, in the test on NCI-H460 lung and with SNB-75 CNS was > 100 µM each time. Moreover, the TGI in the test with UO-31 renal and in the test with SF-268 CNS was > 100 µM each time.

Take `Cc1ccc2[c](c1)[Sn]([c]1ccccc1)([c]1ccccc1)[c]1cc(C)ccc1N2C`: the GI50 with ACHN renal is 66.8 µM; with EKVX NSCLC, 41.4 µM; in the test with SF-295 CNS, > 100 µM; in the test on A549 NSCLC, > 100 µM; in the test with NCI-H460 lung, 51.2 µM; with SNB-75 CNS it was > 100 µM. For the same molecule, the GI50 is > 100 µM in the test on UO-31 renal and 48.4 µM in the test with SF-268 CNS. Besides, the TGI with ACHN renal, in the test with EKVX NSCLC, in the test on SF-295 CNS, in the test with A549 NSCLC, with NCI-H460 lung and with SNB-75 CNS was > 100 µM in each case. Besides, the TGI with UO-31 renal and with SF-268 CNS was > 100 µM each time.

As for `CCOC(=O)C(C)(c1c(C)[nH]c2ccccc12)c1c(C)[nH]c2ccccc12`, the TGI in the test with ACHN renal was 56.6 µM; in the test on EKVX NSCLC, > 100 µM; in the test on SF-295 CNS, 29 µM; with A549 NSCLC, 49.7 µM; in the test on NCI-H460 lung it was 38.7 µM; in the test on SNB-75 CNS it was 48.6 µM. Further, the TGI in the test on UO-31 renal worked out at 35 µM.

Consider `Cc1ccc(C)c(N2C(=O)C(=O)C(c3nc4ccccc4o3)/C(=N/N)C2=O)c1` (configuration not stated), for which the TGI with ACHN renal, with EKVX NSCLC, in the test on SF-295 CNS, in the test with A549 NSCLC, in the test on NCI-H460 lung and in the test with SNB-75 CNS was > 100 µM each time. Besides, the TGI with UO-31 renal and in the test with SF-268 CNS was > 100 µM in each case.

On to `C=CCC1(C)CCCCC1(O)CS(=O)c1ccccc1` (configuration not stated), for which the TGI with ACHN renal, in the test with EKVX NSCLC, in the test on SF-295 CNS, in the test on A549 NSCLC, in the test on NCI-H460 lung and in the test on SNB-75 CNS was > 100 µM in each case. For the same molecule, the TGI in the test on UO-31 renal and with SF-268 CNS was > 100 µM throughout.

Regarding `Cc1c(Cl)cccc1NC(=O)c1cccc([N+](=O)[O-])c1O`, the TGI in the test on ACHN renal was 62.5 µM; in the test on EKVX NSCLC, > 87.6 µM; with SF-295 CNS it was 65 µM; with A549 NSCLC it was > 72.1 µM; in the test on NCI-H460 lung, 43.3 µM; in the test with SNB-75 CNS it was 66.1 µM. The TGI is 40.5 µM with UO-31 renal and > 100 µM in the test on SF-268 CNS.

On to `C[Si](C)(C)CN1C(=O)c2ccccc2C1(O)c1ccccc1` (configuration not stated), for which the TGI in the test on ACHN renal, in the test on EKVX NSCLC, in the test on SF-295 CNS, with A549 NSCLC, with NCI-H460 lung and in the test with SNB-75 CNS was > 100 µM in each case. The TGI with UO-31 renal and in the test on SF-268 CNS was > 100 µM throughout.

For `CC12CCC(=O)N1c1cccnc1N2` (configuration not stated), the TGI in the test with ACHN renal, in the test with EKVX NSCLC, in the test with SF-295 CNS, with A549 NSCLC, in the test with NCI-H460 lung and in the test with SNB-75 CNS was > 100 µM in each case. Further, the TGI in the test with UO-31 renal and with SF-268 CNS was > 100 µM throughout.

In the case of `C[P+](C)(C)c1ccccc1`, the TGI with ACHN renal, in the test on EKVX NSCLC, in the test with SF-295 CNS, with A549 NSCLC, in the test with NCI-H460 lung and in the test on SNB-75 CNS was > 100 µM each time. Moreover, the TGI with UO-31 renal and in the test on SF-268 CNS was > 100 µM throughout.

For the molecule `O=C1C2[C@@H](C(=O)N1c1ccc(Br)cc1)C13C(=CC2([N+](=O)[O-])[C@@H]2C(=O)N(c4ccc(Br)cc4)C(=O)[C@@H]21)c1ccccc1N3c1ccccc1` (some centres not stated), the TGI with ACHN renal was > 100 µM; in the test with EKVX NSCLC, > 100 µM; with SF-295 CNS it was > 100 µM; in the test on A549 NSCLC it was > 100 µM; with SNB-75 CNS, > 100 µM; in the test on UO-31 renal, 38.7 µM. The same molecule had a TGI with SF-268 CNS of 24.2 µM.
